# US20220281930A1, “COMPOSITIONS AND METHODS FOR THE TREATMENT OF PATHOLOGICAL PAIN AND ITCH” (DUKE UNIVERSITY, priority 2019, published 2022)
# Key:
# [1] = test system: inflammatory pain, evoked by peripheral tissue injection of CFA; assay: CFA inflammatory pain model; type: in vivo, mouse
# Method: For pain-related behavior, mechanical allodynia was assessed with von Frey filaments (Ugo Basile, Italy). The mice were placed on a 5×5-mm wire-mesh grid floor in individual compartments to avoid visual stimulation and allowed to adapt for 0.5 h prior to the von Frey test. The von Frey filament was then applied to the middle of the plantar surface of the hind paw with 5 g force. The withdrawal responses following the hind paw stimulation were measured at least three times, and the mechanical allodynia, which was defined as an increase in the number of withdrawal responses to the stimulation, was compared. In addition, paws were stimulated with heat from underneath applied by an infrared beam (Hargreaves' test apparatus, IR level 40; Ugo Basile), and withdrawal latencies were recorded. […] Thus, in vivo, KP functions as an analgesic when administered systemically in injury-related pain models.
# [2] = test system: KCC2 mRNA; assay: KCC2 mRNA RT-qPCR in microdissected spinal cord dorsal horn; type: in vivo, mouse; conditions: KP 10 mg/kg; after PSNL vs vehicle
# Method: oligodT-initiated reverse transcription of 1 μg total RNA, DNA-se treated, was subjected to RT-qPCR using primers specific for KCC2 for rat and KCC2 for human sequences, normalized for neuronal βIII-tubulin, as previously described (Yeo et al., 2009, J Neurosci 29:14652-14662). For cultured neurons, total RNA was extracted from pelleted cells, and for spinal cord tissue it was extracted from microdissected lumbar spinal cord dorsal horn.
# With the aforementioned findings and in view of the SCDH as the likely site of analgesic action of KP (Coull et al., 2003, Nature 424:938-942; Gagnon et al., 2013, Nat Med 19:1524-1528), SCDH KCC2 expression and function in nerve injury and response to KP was assessed. […] To measure KCC2 mRNA, SCDH Rexed-layers I-II were microdissected with laser capture followed by RT-qPCR. SCDH KCC2 protein expression was measured morphometrically after KCC2 immunolabeling using SCDH laminae I-II as the region-of-interest (FIG. 5B).
# [3] = test system: EGABA; assay: Perforated patch EGABA in SCDH lamina-II neurons of treated mice; type: in vivo, mouse; conditions: slices of PSNL juvenile mice treated with KP 30 mg/kg
# [4] = test system: ß-catenin (ß-cat); assay: Phosphoproteomics in rat primary cortical neurons, ß-cat; type: cell-based; conditions: 1 μM KP
# Method: Cultured rat primary cortical neurons were treated with either vehicle DMSO (0.1%) or 1 μM KP for 1 h/24 h. Cells were lysed in non-detergent-containing buffer (Tris.Cl pH8 50 mM, NaCl 150 mM, 0.5% Phosphatase Inhibitor (Pierce #88667) and Protease Inhibitor (Roche #11836153001)). 500 μL was removed and solid urea was added to a final concentration of 8M. Samples were sonicated for further solubilization. After clearing of insoluble material by centrifugation, protein concentration was measured by Bradford assay. 250 μg of total protein was removed from each sample and solubilization buffer was added to normalize all samples to 0.93 μg/μL protein. Samples were then spiked with bovine alpha-casein to 30 fmol/μg of total protein. Samples were reduced with 10 mM DTT at 32° C. for 45 min and then alkylated with 20 mM iodoacetamide at room temperature for 30 min. […]
# TiO2 Enrichment. […] After cleanup using a C18 STAGE tip, and resuspension in 2% acetonitrile, 0.1% TFA, 10 mM citric acid samples were quantified.
# Quantitative analysis of Phosphopeptide Enriched Samples. Quantitative LC-MS/MS was performed in singlicate (4 uL=33% of the total sample each injection) for phosphopeptide-enriched samples using a nanoAcquity UPLC system (Waters Corp) coupled to a Thermo QExactive Plus high resolution accurate mass tandem mass spectrometer (Thermo) via a nanoelectrospray ionization source. […]
structure (smiles),measurement,setting,value
"O=C1Cc2c([nH]c3ccc(Br)cc23)-c2ccccc2N1 [kenpaullone, 9-bromo-7,12-dihydro-indolo [3,2-d] [1]benzazepin-6(5H)-one]",sensitized withdrawal thresholds to mechanical cues,"[1]; KP 10 and 30 mg/kg, no significant difference between doses",significantly less sensitive
same,thermal pain threshold,[1]; both low and high dose KP,significantly less sensitive only at day 7
same,KCC2 mRNA expression in SCDH lamina-I/II,[2],rescues significantly attenuated KCC2 mRNA expression
same,EGABA,[3],significant hyperpolarization
same,differential phosphorylation of ß-cat,[4],not significantly differentially phosphorylated
